# Patent US6255098A, “DS11 (KCTC 0231BP), novel Bacillus sp. strain and novel phytase produced by it” (priority 1996, dated 2001)
# Biological target: T1, novel phytase produced by Bacillus sp. DS11 (KCTC 0231BP), N-terminal amino acid sequence SEQ ID NO: 1 (Bacillus sp., UniProt O66037)
# T1 construct: made in house; host or cells: Bacillus sp; DS11 (KCTC 0231BP), native producer strain; enzyme purified from culture supernatant
# Experiment: biochemical
# Assay type: biochemical
# Conditions: for enzyme activity with additive (Non-addition = 100): 30 min
# Method: The potency of produced enzyme was measured as follows: By using a substrate, comprising 2 mM phytic acid sodium salts and 2 mM CaCl2 in 0.1 M Tris buffer solution (pH 7.0), the enzyme was reacted at 37° C. for 30 minutes to measure the amount of phosphoric acid generated. One unit of the enzymatic potency is equivalent to the enzymatic amount degrading 1 μ mol of inorganic phosphate per 1 minute. As a result of said measurement, the novel enzyme has the enzymatic potency of 0.3 unit per protein mg. The maximum amount of enzyme in fermentation yielding 0.6 unit/mg was obtained when 30 l of strains, a working volume, was charged to a 50 l fermenter and cultivated at 37° C. for 48 hours under the following conditions: air influx--0.8 vvm; stirring rate--150 rpm.
# 2 l of novel strain solution, cultivated according to the procedure as described in said Example, was centrifuged for 15 minutes. Then, the supernatant solution was saturated with 50% acetone to precipitate proteins and the crude enzyme solution passed through dialysis membrane was purified on a column containing phenyl sepharose CL-4B, Resource S and superose 12 HR 10/30 (all of which are manufactured by Pharmacia, Sweden) so as to isolate the phytase enzyme only. The analytical results by said column are represented in the attached drawing FIG. 2.
# [1] = 0.5 h, pH 7, read-out: enzyme activity with additive (Non-addition = 100)
# T1 sequence (O66037 31-383): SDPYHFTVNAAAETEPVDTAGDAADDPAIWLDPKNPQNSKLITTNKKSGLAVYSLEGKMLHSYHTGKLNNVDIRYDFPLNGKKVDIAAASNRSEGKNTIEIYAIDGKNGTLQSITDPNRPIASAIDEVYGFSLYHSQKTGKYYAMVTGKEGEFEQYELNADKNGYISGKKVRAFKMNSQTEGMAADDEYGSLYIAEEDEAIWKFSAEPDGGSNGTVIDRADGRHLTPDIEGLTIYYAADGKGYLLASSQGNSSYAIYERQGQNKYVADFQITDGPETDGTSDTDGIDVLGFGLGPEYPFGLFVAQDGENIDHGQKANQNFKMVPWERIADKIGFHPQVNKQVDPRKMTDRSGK
SMILES,enzyme activity with additive (Non-addition = 100) (additive concentration 1 mM),enzyme activity with additive (Non-addition = 100) (additive concentration 5 mM),inhibition of enzyme activity (in words),remaining activity at 1000 µM [1] [%],remaining activity at 5000 µM [1] [%]
O=S(=O)(F)Cc1ccccc1 [PMSF],86,88,–,–,–
O=C(O)CN(CCN(CC(=O)O)CC(=O)O)CC(=O)O [EDTA],–,–,inhibited the entire enzyme activity,7.5,7.6
